Laboratory results: US20230304064A1, “AUTOMATED, DIGITAL DISPENSING PLATFORM FOR MICRODILUTION ANTIMICROBIAL SUSCEPTIBILITY TESTING” (priority 2016, published 2023)
Where two headings read alike, the source gives them in different places.

What was measured:
E. coli ATCC 25922 = experiment: Microscopy-based AST (MAST): cell morphology at the MIC; conditions: MAST, 2-hour incubation
Description: Briefly, antibiotics are added to solidified microwell surfaces which are subsequently inoculated with 200 nL of a standardized bacterial suspension. Both antibiotic and bacterial cell dispensing are performed using the HP D300 system. Following incubation at 35±2° C., plates are imaged on a Zeiss Cell Observer microscope operating in brightfield mode with a 40X long working distance objective. The microscope is equipped with an automated stage. […] The z-position of the poloxamer surface in the first well is set manually after which the software directs the stage to each subsequent well, collecting a z-series (20 slices at 2 µM per slice with the center of the z-series defined by the microscope’s autofocus feature) with no further operator intervention. Z-series are collapsed using the Extended Depth of Focus feature in the Zeiss Zen Blue software and saved as individual images.
Microscopy-based AST (MAST). […] Two-hundred nL of bacteria in NaCl-P20 suspended at a density of 0.1 McFarland were then delivered to the center of each well by digital dispensing. Immediately after inoculation, plates were incubated at 35±2° C. for 2 hours, and held at room temperature for 2 hours during transport and imaging.
Plates were imaged with a Zeiss Cell Observer microscope with settings described in the “quantification of bacterial dispensing” section. […]

[1] = system: carbapenem-resistant Klebsiella pneumoniae clinical isolates (blaKPC); experiment: DDM (digital dispensing method) MIC testing of CRE isolates; assay type: cell-based; conditions: for MIC: Klebsiella pneumoniae, read-out: DDM modal MICs
Description: (§1) Bacterial strains: The 10 de-identified CRE clinical isolates used in the study were collected at our institution under Institutional Review Board-approved protocols and were sequenced through the carbapenem-resistant Enterobacteriaceae genome initiative at the Broad Institute (Cambridge, MA). All contained a Klebsiella pneumoniae carbapenemase (blaKPC) gene and were colony-purified, minimally passaged, and stored at -80° C. prior to use in this study.
(§2) After incubation, bacterial growth was quantified by measurement of OD600 using an Epoch (BioTek, Winooski, VT) or Spark 10 M microplate reader (Tecan, Morrisville, NC). An OD600 reading of 0.08 or greater (approximately twice typical background readings in wells containing broth alone) was considered indicative of bacterial growth (as also appreciable by visual assessment).
(§3) Precision and accuracy. […] Modal DDM MICs were calculated by taking the mode of all DDM MIC measurements obtained for a given antibiotic-strain combination, inclusive of initial MIC titrations and single-antibiotic rows/columns in synergy arrays (Table 5).

[2] = system: carbapenem-resistant Escherichia coli clinical isolates (blaKPC); experiment: as above; assay type: cell-based; conditions: Escherichia coli, read-out: DDM modal MICs
Description: as §1, §2, §3

[3] = system: 14 Enterobacteriaceae strains presumptively expressing extended spectrum beta-lactamase enzymes; experiment: Inoculum effect by digitally dispensed checkerboard of bacteria and antibiotic; assay type: cell-based; conditions: inkjet printing method, inoculum above/below CLSI-recommended
Excerpt: Inoculum effect experiments comprise a series of broth microdilution experiments in which the cell density of the bacterial inoculum is varied (often 10-fold) across multiple identical doubling dilutions of antibiotics. The MICs are then interpreted at each inoculum concentration.
There is currently no practical way to test for an inoculum effect within the workflow of a clinical laboratory, as such testing would require a highly laborious manual process of testing different inoculum levels with several potential antimicrobials. […] By varying the droplet size during digital printing of a bacterial suspension as described in the preceding section, a desired inoculum of bacteria can be added to each testing well. More specifically, doubling dilutions of bacterial inocula can be performed if desired, thereby establishing the relationship between inoculum and MIC through an inoculum dose-response curve.
We investigated the inoculum effect for cefepime (a fourth generation cephalosporin) on 14 Enterobacteriaceae strains presumptively expressing extended spectrum beta-lactamase enzymes based on third generation cephalosporin resistance. Bacteria and antibiotics were both dispensed as orthogonal, combinatorial two-fold dilution series using our digital dispensing method to create a checkerboard array. […]

[4] = system: KPC-producing CRE K. pneumoniae strains; experiment: Checkerboard synergy, spectrum of activity evaluation; assay type: cell-based, Klebsiella pneumoniae; conditions: strain BIDMC 18A
Description: Spectrum of activity evaluation. […] Each selected combination was tested in duplicate on separate days against the 10 clinical KPC-producing CRE strains (5 K. pneumoniae and 5 E. coli) listed in Table 5, including the original 4 used in the synergy testing screen.

P. mirabilis ATCC 702 = experiment: MIC testing by broth microdilution and D300 digital dispensing (precision study); conditions: precision study, EUCAST criteria
E. cloacae ATCC 13047 = experiment: as above; assay type: cell-based, Enterobacter cloacae; conditions: EUCAST criteria
[5] = system: eighty de-identified Enterobacteriaceae clinical isolates; experiment: organism not typed; assay type: cell-based; conditions: eighty clinical isolates; reference microdilution; CLSI criteria, EUCAST for colistin
Description: K. pneumonia BIDMC12A is a previously described, carbapenem resistant clinical isolate (14) expressing a KPC-3 carbapenemase. The eighty de-identified Enterobacteriaceae clinical isolates (Table 1) used for verification studies were collected at our institution under IRB-approved protocols. All strains were minimally passaged and stored at -80° C. prior to use in this study.
Verification study: Digital dispensing and reference method testing were performed in parallel using the same inoculum preparation. Microdilution reference panels were pre-prepared and stored at -80° C. until use (less than 2 weeks). D300 test method panels were prepared fresh each day of use.
Accuracy was evaluated using established guidelines (16, 17). The MIC determined by the digital dispensing method was compared with the MIC determined by the broth microdilution reference method. Essential agreement, overall essential agreement, and categorical agreement were evaluated as described in the precision study.

[6] = system: carbapenem-resistant Enterobacteriaceae; conditions: cited from earlier work
[7] = system: 4 bacterial screening strains (BIDMC 4, BIDMC 5, BIDMC 12A, and BIDMC 15); experiment: Checkerboard synergy testing screen (FICI-MIN); assay type: cell-based, Klebsiella pneumoniae; Escherichia coli; conditions: range over strains; read-out: MICs of the strains

Compound | cell morphology at the MIC (E. coli ATCC 25922) | MIC ([1]; BIDMC 4, KPN, KPC type 3) [µg/mL] | MIC ([1]; BIDMC 5, KPN, KPC type 3) [µg/mL] | MIC ([1]; BIDMC 10, KPN, KPC type 3) [µg/mL] | MIC ([1]; BIDMC 12A, KPN, KPC type 3) [µg/mL] | MIC ([2]; BIDMC 6, ECO, KPC type 2) [µg/mL] | MIC ([2]; BIDMC 9, ECO, KPC type 2) [µg/mL] | MIC ([2]; BIDMC 15, ECO, KPC type 2) [µg/mL] | MIC ([2]; BIDMC 17A, ECO, KPC type 2) [µg/mL] | MIC ([2]; BIDMC 20A, ECO, KPC type 3) [µg/mL] | inoculum effect [3] | MIC [4] [µg/mL] | categorical susceptibility result (P. mirabilis ATCC 702) | categorical susceptibility result (E. cloacae ATCC 13047) | Non-susceptible strains (%) [5] [%] | Non-susceptible strains n [5] | DDM modal MICs ([1]; BIDMC 5, KPN, KPC type 3) [mg/L] | share of carbapenem-resistant Enterobacteriaceae against which the drug is effective [6] [%] | MIC [7] [µg/mL] | MIC ([1]; BIDMC 18A, KPN, KPC type 2) [µg/mL]
CO/N=C(\C(=O)N[C@@H]1C(=O)N2C(C(=O)[O-])=C(C[N+]3(C)CCCC3)CS[C@H]12)c1csc(N)n1 [FEP, cefepime] | filamented bacteria with a pronounced central bulge | 64 | 16 | 16 | 16 | 8 | 32 | 4 | 4 | 8 | pronounced |  |  |  |  |  |  |  |  | 
Colistin [Colistin (CL)] |  |  |  |  |  |  |  |  |  |  |  | > 128 | resistance | resistance | 21.5 | 17 | 0.5 | > 85 |  | 
C[C@@H](O)[C@H]1C(=O)N2C(C(=O)O)=C(S[C@@H]3CN[C@H](C(=O)Nc4cccc(C(=O)O)c4)C3)[C@H](C)[C@H]12 [ETP, ertapenem] |  | 32 | 16 | 16 | 32 | 8 | 8 | 32 | 8 | 4 |  |  |  |  |  |  |  |  | 8 to 64 | 64
